For data set [1], the target named is Casein kinase II subunit alpha (Homo sapiens) (UniProt P68400). The experiment in a line: Inhibition of human CK2a1 at 10 uM by ADP-Glo kinase assay. (In general: ADP-Glo first removes unused ATP, then detects ADP through luciferase.)
The target in data set [2] is T1, Aurora kinase A (Homo sapiens) (UniProt O14965).
T1 sequence (whole entry): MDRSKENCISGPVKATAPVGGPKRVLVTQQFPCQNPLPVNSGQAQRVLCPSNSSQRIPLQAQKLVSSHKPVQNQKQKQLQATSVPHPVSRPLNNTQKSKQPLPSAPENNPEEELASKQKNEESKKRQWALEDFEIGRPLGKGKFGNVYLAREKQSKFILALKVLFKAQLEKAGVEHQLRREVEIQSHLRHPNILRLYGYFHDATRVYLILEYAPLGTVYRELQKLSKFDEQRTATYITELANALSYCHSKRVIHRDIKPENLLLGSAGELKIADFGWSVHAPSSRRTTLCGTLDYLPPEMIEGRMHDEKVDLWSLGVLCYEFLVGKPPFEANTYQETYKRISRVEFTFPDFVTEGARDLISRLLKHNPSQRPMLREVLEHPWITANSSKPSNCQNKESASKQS
The experiment in a line: Inhibition of human Aurora A at 10 uM by ADP-Glo kinase assay.

The target of data set [3] is Serine/threonine-protein kinase PAK 1 (Homo sapiens) (UniProt Q13153). The experiment in a line: Inhibition of human PAK1 at 10 uM by ADP-Glo kinase assay.
Serine/threonine-protein kinase PAK 1 (Homo sapiens), sequence (Q13153 whole entry): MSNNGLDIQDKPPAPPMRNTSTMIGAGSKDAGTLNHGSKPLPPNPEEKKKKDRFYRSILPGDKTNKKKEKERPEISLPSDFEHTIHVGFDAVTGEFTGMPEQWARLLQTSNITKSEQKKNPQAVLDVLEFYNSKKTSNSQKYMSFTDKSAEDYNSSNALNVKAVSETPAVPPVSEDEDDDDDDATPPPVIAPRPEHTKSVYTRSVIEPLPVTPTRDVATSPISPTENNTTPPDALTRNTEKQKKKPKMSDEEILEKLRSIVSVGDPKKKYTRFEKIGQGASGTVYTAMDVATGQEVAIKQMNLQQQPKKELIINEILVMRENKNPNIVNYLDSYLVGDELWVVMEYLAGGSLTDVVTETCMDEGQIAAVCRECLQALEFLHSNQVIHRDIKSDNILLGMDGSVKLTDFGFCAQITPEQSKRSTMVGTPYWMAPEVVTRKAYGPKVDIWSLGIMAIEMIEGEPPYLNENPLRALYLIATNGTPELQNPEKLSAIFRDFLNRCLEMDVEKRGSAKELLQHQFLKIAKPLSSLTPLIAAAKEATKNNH
A short description of data set [4]: Cytotoxicity against mouse RAW264.7 cells assessed a reduction in cell viability incubated for 24 hrs in presence of 10% FBS by MTT assay. Format: cell-based. The settings on record: RAW264.7 cells.
The target in data set [5] is T2, Calmodulin-sensitive adenylate cyclase (Bacillus anthracis, UniProt P40136).
T2 sequence (P40136 whole entry): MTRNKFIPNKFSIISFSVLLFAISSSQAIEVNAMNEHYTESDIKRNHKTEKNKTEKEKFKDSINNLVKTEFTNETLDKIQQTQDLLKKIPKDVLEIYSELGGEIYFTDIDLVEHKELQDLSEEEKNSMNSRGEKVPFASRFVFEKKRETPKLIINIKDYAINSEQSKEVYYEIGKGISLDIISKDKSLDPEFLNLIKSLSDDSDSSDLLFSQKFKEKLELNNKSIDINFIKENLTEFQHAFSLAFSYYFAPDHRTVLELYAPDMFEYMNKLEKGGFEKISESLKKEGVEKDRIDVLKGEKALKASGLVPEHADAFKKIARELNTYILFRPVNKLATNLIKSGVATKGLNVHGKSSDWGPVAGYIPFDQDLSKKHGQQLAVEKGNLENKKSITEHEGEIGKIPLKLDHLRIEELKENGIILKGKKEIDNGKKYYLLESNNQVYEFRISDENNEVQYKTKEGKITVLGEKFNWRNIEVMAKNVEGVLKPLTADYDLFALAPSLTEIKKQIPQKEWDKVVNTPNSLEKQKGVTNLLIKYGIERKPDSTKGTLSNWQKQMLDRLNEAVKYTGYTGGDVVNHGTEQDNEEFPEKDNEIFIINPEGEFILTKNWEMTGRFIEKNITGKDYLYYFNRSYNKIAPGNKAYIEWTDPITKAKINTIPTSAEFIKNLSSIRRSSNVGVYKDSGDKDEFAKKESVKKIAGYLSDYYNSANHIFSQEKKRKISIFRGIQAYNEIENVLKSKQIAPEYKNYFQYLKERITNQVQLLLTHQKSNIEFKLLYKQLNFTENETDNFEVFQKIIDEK
Description: Inactivation of Bacillus anthracis edema factor in presence of CaM incubated for 10 to 240 mins by EnzChek pyrophosphate assay.

Data set [6] deals with T3, Calcium/calmodulin-dependent protein kinase type IV (Homo sapiens) (UniProt Q16566).
T3 sequence (whole entry): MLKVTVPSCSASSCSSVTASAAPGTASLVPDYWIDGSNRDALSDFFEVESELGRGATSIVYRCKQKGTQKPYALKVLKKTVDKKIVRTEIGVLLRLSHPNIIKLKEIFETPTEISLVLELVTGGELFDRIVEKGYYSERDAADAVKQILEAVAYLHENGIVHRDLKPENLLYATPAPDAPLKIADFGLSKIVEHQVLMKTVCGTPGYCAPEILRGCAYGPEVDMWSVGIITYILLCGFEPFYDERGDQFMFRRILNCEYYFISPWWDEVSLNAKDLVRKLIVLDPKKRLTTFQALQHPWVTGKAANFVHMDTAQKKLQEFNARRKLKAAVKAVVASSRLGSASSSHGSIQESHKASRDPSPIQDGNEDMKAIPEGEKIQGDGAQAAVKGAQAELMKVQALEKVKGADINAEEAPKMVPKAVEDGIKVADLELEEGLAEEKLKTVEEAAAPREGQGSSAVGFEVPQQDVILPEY
Description: Inhibition of human CAMK4 at 10 uM by ADP-Glo kinase assay.

The test system of a further data set is RAW264.7. Description: Cytotoxicity against mouse RAW264.7 cells assessed a reduction in cell viability incubated for 24 hrs in absence of 10% FBS by MTT assay. The class given is cell-based. The settings on record: raw264.7, 24 h.
For data set [7], the target named is Casein kinase I isoform alpha (Homo sapiens) (UniProt P48729). Description: Inhibition of human CK1a1 at 10 uM by ADP-Glo kinase assay.
Casein kinase I isoform alpha (Homo sapiens), sequence (P48729 2-337 limits assumed): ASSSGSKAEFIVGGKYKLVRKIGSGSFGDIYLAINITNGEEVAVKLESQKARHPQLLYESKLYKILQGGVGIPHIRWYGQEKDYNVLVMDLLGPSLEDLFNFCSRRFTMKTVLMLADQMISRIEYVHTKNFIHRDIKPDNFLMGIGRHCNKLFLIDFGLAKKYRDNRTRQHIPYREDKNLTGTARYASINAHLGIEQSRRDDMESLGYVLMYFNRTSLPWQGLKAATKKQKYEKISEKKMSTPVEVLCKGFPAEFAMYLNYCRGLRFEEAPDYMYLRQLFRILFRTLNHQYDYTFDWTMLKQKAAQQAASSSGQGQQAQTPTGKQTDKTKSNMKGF
For data set [8], the target named is Casein kinase I isoform gamma-1 (Homo sapiens) (UniProt Q9HCP0). The experiment in a line: Inhibition of human CK1g1 at 10 uM by ADP-Glo kinase assay.
Casein kinase I isoform gamma-1 (Homo sapiens), sequence (Q9HCP0 whole entry, looked up, canonical isoform): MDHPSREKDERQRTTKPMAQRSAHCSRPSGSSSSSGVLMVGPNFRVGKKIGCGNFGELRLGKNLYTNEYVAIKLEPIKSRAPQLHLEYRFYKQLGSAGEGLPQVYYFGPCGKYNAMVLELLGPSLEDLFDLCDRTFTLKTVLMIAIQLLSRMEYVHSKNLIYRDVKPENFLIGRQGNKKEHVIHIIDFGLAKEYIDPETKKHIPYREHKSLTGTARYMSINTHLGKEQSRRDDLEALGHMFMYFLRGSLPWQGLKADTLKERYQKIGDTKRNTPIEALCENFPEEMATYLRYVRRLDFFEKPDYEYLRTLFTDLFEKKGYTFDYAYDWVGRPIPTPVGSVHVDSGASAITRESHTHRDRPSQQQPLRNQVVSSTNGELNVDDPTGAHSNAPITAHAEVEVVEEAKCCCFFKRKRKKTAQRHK
The target of data set [9] is RAC-alpha serine/threonine-protein kinase (Homo sapiens) (UniProt P31749). The experiment in a line: Inhibition of human AKT1 at 10 uM by ADP-Glo kinase assay.
RAC-alpha serine/threonine-protein kinase (Homo sapiens), sequence (P31749 whole entry): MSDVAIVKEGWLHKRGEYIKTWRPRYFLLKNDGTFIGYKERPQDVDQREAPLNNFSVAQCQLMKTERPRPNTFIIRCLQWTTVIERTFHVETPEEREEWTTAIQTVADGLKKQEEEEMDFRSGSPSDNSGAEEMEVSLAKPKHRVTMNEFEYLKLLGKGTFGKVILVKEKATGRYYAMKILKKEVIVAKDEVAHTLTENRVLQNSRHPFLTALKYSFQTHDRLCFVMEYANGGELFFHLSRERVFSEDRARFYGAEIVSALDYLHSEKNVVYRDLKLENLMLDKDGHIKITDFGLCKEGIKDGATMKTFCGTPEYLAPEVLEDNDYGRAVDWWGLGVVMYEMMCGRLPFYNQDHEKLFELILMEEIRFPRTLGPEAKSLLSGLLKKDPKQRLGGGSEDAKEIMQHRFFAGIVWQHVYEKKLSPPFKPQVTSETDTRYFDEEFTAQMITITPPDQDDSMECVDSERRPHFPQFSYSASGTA
Data set [10] concerns the target T4, Calmodulin-sensitive adenylate cyclase (Bacillus anthracis) (UniProt P40136).
T4 sequence (whole entry): T2 sequence (P40136 whole entry)
Description: Inactivation of Bacillus anthracis edema factor assessed as inactivation rate constant in presence of CaM incubated for 10 to 240 mins by EnzChek pyrophosphate assay.

Data set [11] concerns the target T5, Serine/threonine-protein kinase Chk1 (Homo sapiens) (UniProt O14757).
T5 sequence (whole entry): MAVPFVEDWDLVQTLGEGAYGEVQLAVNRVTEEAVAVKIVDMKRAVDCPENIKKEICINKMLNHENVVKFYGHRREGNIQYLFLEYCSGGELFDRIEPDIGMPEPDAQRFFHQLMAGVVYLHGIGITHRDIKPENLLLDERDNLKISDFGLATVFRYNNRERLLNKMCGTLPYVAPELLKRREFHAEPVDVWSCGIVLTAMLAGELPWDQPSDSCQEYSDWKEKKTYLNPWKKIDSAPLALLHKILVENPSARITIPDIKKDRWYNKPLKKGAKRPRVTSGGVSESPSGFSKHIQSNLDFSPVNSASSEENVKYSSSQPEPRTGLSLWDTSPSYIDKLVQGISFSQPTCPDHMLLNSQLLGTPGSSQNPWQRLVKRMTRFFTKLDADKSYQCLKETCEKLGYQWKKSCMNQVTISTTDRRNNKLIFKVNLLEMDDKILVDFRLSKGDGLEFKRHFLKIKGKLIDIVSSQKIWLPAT
Description: Inhibition of human CHK1 at 10 uM by ADP-Glo kinase assay.

Data set [12] concerns the target Mitogen-activated protein kinase 14 (Homo sapiens) (UniProt Q16539). The experiment in a line: Inhibition of human p38alpha at 10 uM by ADP-Glo kinase assay.

Mitogen-activated protein kinase 14 (Homo sapiens), sequence (Q16539 whole entry): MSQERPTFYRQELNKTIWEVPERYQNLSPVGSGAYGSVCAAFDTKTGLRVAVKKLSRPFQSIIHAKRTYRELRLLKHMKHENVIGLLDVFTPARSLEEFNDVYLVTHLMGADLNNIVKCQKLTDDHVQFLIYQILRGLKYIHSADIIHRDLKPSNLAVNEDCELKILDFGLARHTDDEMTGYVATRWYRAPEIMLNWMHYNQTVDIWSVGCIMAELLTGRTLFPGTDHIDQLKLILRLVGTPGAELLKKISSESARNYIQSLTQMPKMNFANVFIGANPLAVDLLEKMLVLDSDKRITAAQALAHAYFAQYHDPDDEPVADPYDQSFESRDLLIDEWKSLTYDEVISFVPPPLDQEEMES
Casein kinase II subunit alpha (Homo sapiens), sequence (P68400 whole entry, looked up): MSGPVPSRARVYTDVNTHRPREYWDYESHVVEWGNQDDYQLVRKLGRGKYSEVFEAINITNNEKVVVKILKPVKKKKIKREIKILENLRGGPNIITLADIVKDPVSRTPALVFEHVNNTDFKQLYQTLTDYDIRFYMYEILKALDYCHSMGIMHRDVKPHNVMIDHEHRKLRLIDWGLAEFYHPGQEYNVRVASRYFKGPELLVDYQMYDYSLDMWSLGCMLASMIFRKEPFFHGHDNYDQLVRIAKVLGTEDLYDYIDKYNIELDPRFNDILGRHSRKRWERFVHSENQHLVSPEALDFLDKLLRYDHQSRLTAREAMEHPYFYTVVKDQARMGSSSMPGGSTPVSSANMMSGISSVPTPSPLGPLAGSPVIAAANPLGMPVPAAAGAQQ

As to `Nc1ncnc2c1ccn2C1CCN(C(=O)c2ccc(S(=O)(=O)F)cc2)CC1`, the inhibition (as a rule, how much of the control response was suppressed) in [1] is 9%; in data set [2], 39%; in [3], 0%; in [6], 7%; in data set [7], 0%; in [8], 23%. Further, the inhibition worked out at 20% in data set [9], 18% in data set [11] and 6% in [12]. For the same compound, the half-maximal cytotoxic concentration (CC50) (as a rule, the concentration that lowers cell viability or growth by half) at 24 h in data set [4] is greater than 100000 nM. In addition, in data set [5], the Ki worked out at 300 nM. Also, the Activity result in the data set on RAW264.7 was “Non-Toxic”. Also, in [10], the Kinact is 0.282 min⁻¹.

In the case of `Cc1nc(N)c2ccn(C3CCN(C(=O)c4ccc(S(=O)(=O)F)cc4)CC3)c2n1`, the inhibition amounted to 16% in data set [1]; 47% in data set [2]; 0% in data set [3]; 27% in data set [6]; 0% in data set [7]; 16% in [8]. Further, the inhibition in data set [9] came out at 24%; in [11] it was 97%; in data set [12] it was 2%. The half-maximal cytotoxic concentration (CC50) at 24 h in data set [4] is greater than 100000 nM. Also, in [5], the Ki is 700 nM. Besides, the Activity result with RAW264.7 is on record as “Non-Toxic”. The Kinact in [10] was 0.129 min⁻¹.

These data come from ChEMBL document CHEMBL4177722, “Small molecule inhibitors of anthrax edema factor” (Bioorg Med Chem Lett, 2018).
